Laboratory results published in the supplement of paper PMC10307832.

Columns and labels:
Test in all cases: relative viability (nuclei count vs DMSO), 5 days (fraction); higher = more cells survive
[1] = compound: Nc1nc(Nc2ccc3c(c2)CC[C@@H](N2CCCC2)CC3)nn1-c1cc2c(nn1)-c1ccccc1CCC2 [Bemcentinib] + Cc1cc(Nc2cc(N3CCN(C)CC3)nc(Sc3ccc(NC(=O)C4CC4)cc3)n2)n[nH]1 [Tozasertib] (partner 0.1 µM)
Method in brief: (§1)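 A single step with final 0.05% Triton X-100, 1% formaldehyde and 1 ug/ml Hoechst fixed the cells and stained nuclei 5 days after treatment. Lung cancer cell lines in 1536-well plates had been treated by pin tool the day after seeding with one drug alone or a fixed anchor-drug dose plus five library-drug doses (not always all listed) in √10 steps, and nuclei were counted on 4× images. Relative viability is the ratio of nuclei in treated wells to nuclei in vehicle wells, taken as the median of duplicate plates.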

[2] = compound: Nc1nc(Nc2ccc3c(c2)CC[C@@H](N2CCCC2)CC3)nn1-c1cc2c(nn1)-c1ccccc1CCC2 [Bemcentinib] + C[C@]1(O)C[C@@H](c2nc(-c3ccc4ccc(-c5ccccc5)nc4c3)c3c(N)nccn32)C1 [Linsitinib] (partner 1 µM)
Method in brief: as §1

[3] = compound: CC1=CC=C(C=C1)C(=O)CN2C3=C(CCCC3)SC2=N [Pifithrin_alpha] + C[C@@H](Oc1cc(-c2cnn(C3CCNCC3)c2)cnc1N)c1c(Cl)ccc(F)c1Cl [Crizotinib] (partner 1 µM)
Method in brief: as §1

[4] = compound: CNC(=O)c1ccccc1Sc1ccc2c(/C=C/c3ccccn3)n[nH]c2c1 [Axitinib] + CS(=O)(=O)CCNCc1ccc(-c2ccc3ncnc(Nc4ccc(OCc5cccc(F)c5)c(Cl)c4)c3c2)o1 [Lapatinib] (partner 2 µM)
Method in brief: as §1

Row | Cell Line | relative viability ([1]; first compound 0.04 µM) | relative viability ([1]; first compound 0.1265 µM) | relative viability ([1]; first compound 0.4 µM) | relative viability ([1]; first compound 1.265 µM) | relative viability ([1]; first compound 4 µM) | relative viability ([2]; first compound 0.04 µM) | relative viability ([2]; first compound 0.1265 µM) | relative viability ([2]; first compound 0.4 µM) | relative viability ([2]; first compound 1.265 µM) | relative viability ([2]; first compound 4 µM) | relative viability ([3]; first compound 1 µM) | relative viability ([3]; first compound 3.162 µM) | relative viability ([3]; first compound 10 µM) | relative viability ([3]; first compound 31.62 µM) | relative viability ([3]; first compound 100 µM) | relative viability ([4]; first compound 0.005 µM) | relative viability ([4]; first compound 0.01581 µM) | relative viability ([4]; first compound 0.05 µM) | relative viability ([4]; first compound 0.1581 µM) | relative viability ([4]; first compound 0.5 µM)
1 | 201T | 0.932 | 1.06 | 0.94 | 0.868 | 0.964 | 1.03 | 1.04 | 1.02 | 1.07 | 1.07 | 1.04 | 0.902 | 0.862 | 0.808 | 0.765 | 1.01 | 1.03 | 1.07 | 1.05 | 0.966
2 | A549 |  |  |  |  |  | 0.655 | 0.657 | 0.659 | 0.677 | 0.622 | 0.989 | 0.761 | 0.817 | 0.552 | 0.799 | 0.896 | 1 | 0.997 | 0.902 | 1.01
3 | A-427 | 0.192 | 0.192 | 0.197 | 0.213 | 0.201 |  | 1.14 | 1.07 | 1.14 | 1.14 | 1 | 0.85 | 0.857 | 0.574 | 0.932 | 1.1 | 1.01 | 1.08 | 1.06 | 1.06
4 | ABC-1 | 0.16 | 0.175 | 0.187 | 0.193 | 0.162 | 0.785 | 0.811 | 0.881 | 0.801 | 0.682 | 1.09 | 0.999 | 1.22 | 0.817 | 0.597 | 1.19 | 1.28 | 1.01 | 1.32 | 1.21
5 | BEN | 0.464 | 0.446 | 0.569 | 0.579 | 0.461 | 0.915 | 1.09 | 0.986 | 0.886 | 0.907 | 0.878 | 1.03 | 1.05 | 0.84 | 1.34 | 0.695 | 0.648 | 0.592 | 0.563 | 0.497
6 | CAL-12T | 0.302 | 0.368 | 0.307 | 0.286 | 0.329 | 0.865 | 0.821 | 0.927 | 0.823 | 0.863 |  | 0.656 | 0.58 | 0.5 | 0.555 | 0.712 | 0.693 | 0.609 | 0.645 | 0.624
7 | COR-L23 | 0.232 | 0.167 | 0.225 | 0.211 | 0.183 | 1.04 | 0.935 | 1.2 | 1.17 | 0.844 | 0.583 | 0.723 | 0.683 |  | 0.644 | 0.975 | 0.963 | 1.12 | 0.808 | 1.12
8 | COR-L 105 | 0.306 | 0.358 | 0.317 | 0.336 | 0.345 | 0.975 | 0.943 | 1.15 | 1.02 | 0.871 | 0.678 | 0.644 | 0.712 | 0.469 | 0.75 | 0.355 | 0.357 | 0.328 | 0.381 | 0.38
9 | Calu-6 |  |  |  |  |  | 0.946 | 1.05 | 1.04 | 0.983 | 0.944 | 0.944 | 0.742 | 0.813 | 0.605 | 0.85 | 1.07 | 1.11 | 1.08 | 1.06 | 1.39
10 | ChaGo-K-1 | 0.217 | 0.254 | 0.213 | 0.229 | 0.221 |  |  |  |  |  | 1.2 | 1.27 | 1.08 | 0.708 | 1.03 |  |  |  |  | 
11 | EBC-1 |  |  |  |  |  | 0.926 | 0.928 | 0.907 | 1.19 | 1.18 | 0.187 | 0.21 | 0.168 | 0.16 | 0.152 | 0.218 | 0.218 | 0.172 | 0.239 | 0.221
12 | EKVX | 0.39 | 0.468 | 0.39 | 0.437 | 0.374 | 1.06 | 1.19 | 1.15 | 1.26 | 1.15 | 1.02 | 0.716 | 0.725 | 0.46 | 0.738 | 0.178 | 0.226 | 0.222 | 0.216 | 0.183
13 | EMC-BAC-2 | 0.264 | 0.281 | 0.285 | 0.305 | 0.301 | 0.816 | 0.845 | 0.879 | 0.889 | 0.871 | 0.733 | 0.745 | 0.627 | 0.416 | 0.645 | 0.917 | 0.869 | 0.947 | 0.915 | 0.803
14 | EPLC-272H | 0.281 | 0.207 | 0.249 | 0.252 | 0.261 |  | 1.08 | 1.28 | 1.16 | 1.19 |  | 0.921 | 0.805 | 0.601 | 1.05 | 0.97 | 0.889 | 0.906 | 0.975 | 0.94
